In one data set the target is T1, HsMIF (Homo sapiens, UniProt P14174).
T1 construct: gene MIF; commercial recombinant human MIF (R&D Systems)
T1 sequence (P14174 2-115): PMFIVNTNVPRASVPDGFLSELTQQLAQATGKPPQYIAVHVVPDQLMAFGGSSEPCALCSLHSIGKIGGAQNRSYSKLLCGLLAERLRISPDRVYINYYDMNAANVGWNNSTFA
As to the kind of experiment: dopachrome tautomerase assay, absorbance at […] nm. Format: biochemical.

Data set [1] has as its system COC(=O)[C@@H]1CC2=CC(=O)C(=O)C=C2N1. As to the kind of experiment: purified protein. The following applies: L-DOPA methyl ester (1-20 mM) oxidised in situ with sodium periodate, sodium phosphate pH 6.2, 1 mM EDTA, 37 °C, paper names the substrate L-DOPA methyl ester.

As for `COC(=O)CC1CC(c2ccc(O)cc2)=NO1` (racemic) [ISO-1], at HsMIF, the inhibition (commonly the share of the control response that was lost under treatment) at 10 µM stood at 60%. Consider TgMIF (Toxoplasma gondii), for which the Michaelis constant (Km) – broadly, the substrate concentration at which the rate is half of its maximum – in data set [1] was 9.6 mM.

These data come from PMC3642319, “Biochemical and Immunological Characterization of Toxoplasma gondii Macrophage Migration Inhibitory Factor” (The Journal of Biological Chemistry, 2013).
